By mortality is commonly meant the percentage killed.

This is an account of results in patent US8715754B2, “Chromobacterium bioactive compositions and metabolites” (Marrone Bio Innovations, Inc., priority 2010, dated 2014).

Data set [1] relates to Cabbage Looper (Trichoplusia ni). Briefly: whole plant or invertebrate. The class given is in vivo. The protocol:
Toxicity of the compound of interest in fraction 1 (F1) was confirmed in an in vitro assay using 1st instar cabbage looper larvae as a test object.
Two hundred microliters of commercial cabbage looper diet was distributed in each well of a 96-well microplate. After the diet had solidified, 100 uL of solution containing 50 uL of extract (corresponding to four individual peaks found in fraction 1; H1-H4), 350 uL EtOH and 600 uL sterile DI water was pipetted in each well, after which the plate was dried using a hand-held fan. The amount of extract in each well was 10 micrograms. Each treatment was replicated eight times, and a mixture of pure ethanol and water was used as a negative control.
One test insect (1st instar larvae of cabbage looper) was placed in each well, and the plate was covered with an adhesive seal. The seal was punctured for aeration, and the sealed plate was incubated at 26° C. for four days.
The 96-well plate assay system described in the previous example was used to determine the concentration of pure violacein needed to kill 50% of the 1st instar cabbage looper larvae. Based on the data, violacein is a potent insecticide with an estimated LC50 value of 7*10^−6 micrograms per well for cabbage looper larvae in an in vitro diet-overlay assay.

The test system of data set [2] is Cabbage looper (Trichoplusia ni) or Beet armyworm (Spodoptera exigua). As to the kind of experiment: Screening of fractions and pure compounds in feeding assay. Type of data set: in vivo. As to conditions: HPLC-purified compounds. The protocol:
The culture broth derived from the 10-L fermentation C. substugae in L-broth is extracted with Amberlite XAD-7 resin (Asolkar et al., 2006) by shaking the cell suspension with resin at 225 rpm for two hours at room temperature. The resin and cell mass are collected by filtration through cheesecloth and washed with DI water to remove salts. The resin, cell mass, and cheesecloth are then soaked for 2 h in acetone/methanol (50/50) after which the acetone/methanol is filtered and dried under vacuum using rotary evaporator to give the crude extract. The crude extract is then fractionated by using Sephadex LH 20 size exclusion chromatography (CH2Cl2/CH3OH; 50/50) to give 7 fractions (FIG. 1). These fractions are then concentrated to dryness using rotary evaporator and the resulting dry residues are screened for biological activity using a feeding assay with Cabbage looper (Trichoplusia ni) or Beet armyworm (Spodoptera exigua). The active fractions are then subjected to reversed phase HPLC (Spectra System P4000 (Thermo Scientific) to give pure compounds, which are then screened in above mentioned bioassays to locate/identify the active compounds. To confirm the identity of the compound, additional spectroscopic data such as LC/MS and NMR is recorded.

The test system of data set [3] is Cabbage Loopers, Trichoplusia ni. As to the kind of experiment: Synergy test on treated artificial diet, cabbage loopers. The class given is in vivo. The protocol:
(§1) Synergy tests were performed by treating artificial diet in 96-well plates and feeding treated diet to neonate larvae. 100 μL of treatment were pipetted into multiple wells of each plate. […] The diet was fan-dried to remove excess moisture. Neonate Beet Armyworm, Spodoptera exigua, or Cabbage Loopers, Trichoplusia ni, were transferred into each well of the multi-well plate. Infested plates were covered with adhesive plate sealer and a single small hole was poked into the sealer over each well to allow for aeration. Plates were stored in an incubator at 26° C., 16 h light/8 h dark cycle for […]. On the third and fourth day after infesting, mortality was scored.
(§2) The determination of a synergistic, antagonistic, or additive interaction was determined using the methods from (Colby 1967). Due to variation in bioassays, it was determined that ratios between 0 and 0.9 would be considered antagonistic, 0.9-1.1 ratios would be additive, and ratios above 1.1 would be considered synergistic relationships.
MBI-203 synergy with insecticides against Cabbage Loopers was tested. Chlorantranilipole (marketed as Coragen®, Dupont), Bacillus thuringiensis var. kurstaki (Dipel®, Valent Biosciences), Spinosad (marketed as Entrust®, Dow Agro Sciences), Spirotetramet (marketed as Movento®, Bayer Crop Science) and Pyrethrum/pyrethrins (marketed as Pyganic®, Arbico Organics) were tested with MBI-203. As noted above, except where indicated, LC50 concentrations of MBI-203 and insecticides were used.

Data set [4] deals with Beet Armyworm, Spodoptera exigua. Briefly: Synergy test on treated artificial diet, beet armyworm. Type of data set: in vivo. The protocol: as §1, §2
MBI-203 synergy with insecticides against Beet Army Worm (BAW) was tested. Chlorantranilipole (marketed as Coragen®, Dupont), Bacillus thuringiensis var. kurstaki (Dipel®, Valent Biosciences), Spinosad (marketed as Entrust®, Dow Agro Sciences), Spirotetramet (marketed as Movento®, Bayer Crop Science) and Pyrethrum/pyrethrins (marketed as Pyganic®, Arbico Organics) were tested with MBI-203. As noted above, except where indicated, LC50 concentrations of MBI-203 and insecticides were used. […] Pyrethrum combinations with MBI-203 were antagonistic.

The subject of data set [5] is root knot nematode Meloidogyne sp. Briefly: Mini drench test, root galling of cucumber (Zeck's gall index). As to conditions: 20 ppm. Type of data set: in vivo, Meloidogyne incognita. The protocol: MBI-203 was tested for its intrinsic activity against the root knot nematode Meloidogyne sp. in two mini drench tests.
Specifically MBI-203 was tested in a greenhouse assay conducted in 45 ml pots. Cucumber seeds cv. Toshka were sown directly into pots filled with a sandy loam soil. Ten days later pots were each treated with 5 ml of a suspension. Hereafter, pots were inoculated with 3000 eggs of M. incognita. Four replicates were prepared for each treatment and rate. The trial was harvested fourteen days after trial application and inoculation. Root galling was assessed according to Zeck's gall index (Zeck, 1971). Specific conditions are set forth below in Table 3.

Where [6] appears, read: Trichoplusia ni, 96 h, read-out: % mortality Day 4.

Regarding `O=C1NC(c2c[nH]c3ccc(O)cc23)=C/C1=C1\C(=O)Nc2ccccc21` (single isomer, unassigned) [Violacein, violacein], in data set [1] (setting [6]), the mortality at 1e-06 µg/disc worked out at 14.2%, the mortality at 1e-05 µg/disc was 71.4%, the mortality at 0.0001 µg/disc is 100% and the mortality at 0.001 µg/disc worked out at 100%. Also, in data set [1] (setting [6]), the mortality at 0.01 µg/disc was determined as 100%, the mortality at 0.1 µg/disc came out at 100%, the mortality at 1 µg/disc is 100% and the mortality at 10 µg/disc came to 100%. For the same compound, in data set [1] (in vivo), the “estimated LC50” value is 7*10^−6 micrograms per well. Further, in data set [2], the “activity in feeding bioassay (active compound)” value (shortened to “activity in feeding bioassay”) was “active”.
Consider `CNC(=O)c1cc(Cl)cc(C)c1NC(=O)c1cc(Br)nn1-c1ncccc1Cl` [Chlorantranilipole], for which the “Product alone Kill %” value in data set [3] (LC50 concentration) came to 3%; in data set [4] (LC50 concentration), 9.1%.
Consider `CCOP(=O)(SC(C)CC)N1CCSC1=O` (stereo not shown) [Fosthiazate], for which the control in data set [5] (Mini drench test no. 1) and in data set [5] (Mini drench test no. 2) was 100% throughout.
In the case of `CCOC(=O)OC1=C(c2cc(C)ccc2C)C(=O)N[C@]12CC[C@@H](OC)CC2` [Spirotetramet], the “Product alone Kill %” value came out at 23.8% in data set [3] (LC50 concentration), 41.5% in data set [3] (Spirotetramet 0.5X LC50), 42.9% in data set [4] (Spirotetramet 0.53X LC50) and 77.5% in data set [4] (Spirotetramet 1.4X LC50).
With `O=C1NC(c2c[nH]c3ccccc23)=C/C1=C1\C(=O)Nc2ccccc21` [deoxyviolacein (3), deoxyviolacein], in data set [2], the “activity in feeding bioassay” value was “active”.
For the compound Spinosad, the “Product alone Kill %” value in data set [3] (LC50 concentration) is listed as 54.3%; in data set [4] (LC50 concentration) it was 68.7%.
As for chromamide A, the “activity in feeding bioassay” value in data set [2] is given as “active”.
